Assay [1] concerns the target SHP-2 enzyme (Met1-Leu525) (Homo sapiens (Human), UniProt Q06124). The assay can be described thus: SHP2 inhibition enzymatic assay. Type of assay: biochemical. The conditions noted are these: 75 μM DiFMUP substrate. A digest of the protocol: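 SHP-2 (Met1-Leu525), 0.5 nM, activated with 500 nM IRS1 bis-phosphopeptide, preincubated 30 min with compounds in HEPES pH 7.2 buffer with 5 mM DTT. 75 μM DiFMUP added for 30 min at room temperature, stopped with bpV; fluorescence read. IC50 from four-parameter logistic fit of % inhibition.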

Assay [2] deals with ERK phosphorylation in KYSE-520 cells. The assay can be described thus: Phospho-ERK cellular assay. It counts as cell-based. To be noted: read-out: PERK IC50. The essentials:
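TR-FRET read-out of ERK1/2 Thr202/Tyr204 phosphorylation was taken after overnight antibody incubation at room temperature. Before that, KYSE-520 cells were treated 2 h at 37 °C with compound dilutions and lysed 30 min. Percent inhibition relative to vehicle and cell-free wells was fitted four-parametrically to give IC50.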

The mark [3] stands for this setting: 0.5 nM SHP-2 activated by 500 nM IRS1 peptide, read-out: SHP2wt-IC50.
The mark [4] stands for this setting: Homo sapiens, KYSE-520, 2 h, KYSE-520 cells, 2 h at 37° C., phospho-ERK1/2 (Thr202/Tyr204) TR-FRET.

Read-outs that look alike come from different tables or passages of the source.

IC50 data for 9 molecules are collected here from patent US20240109900A1, “AZABICYCLIC SHP2 INHIBITORS” (IRBM S.P.A., priority 2021, published 2024).

Chain of SHP-2 enzyme (Met1-Leu525) (Q06124 1-525): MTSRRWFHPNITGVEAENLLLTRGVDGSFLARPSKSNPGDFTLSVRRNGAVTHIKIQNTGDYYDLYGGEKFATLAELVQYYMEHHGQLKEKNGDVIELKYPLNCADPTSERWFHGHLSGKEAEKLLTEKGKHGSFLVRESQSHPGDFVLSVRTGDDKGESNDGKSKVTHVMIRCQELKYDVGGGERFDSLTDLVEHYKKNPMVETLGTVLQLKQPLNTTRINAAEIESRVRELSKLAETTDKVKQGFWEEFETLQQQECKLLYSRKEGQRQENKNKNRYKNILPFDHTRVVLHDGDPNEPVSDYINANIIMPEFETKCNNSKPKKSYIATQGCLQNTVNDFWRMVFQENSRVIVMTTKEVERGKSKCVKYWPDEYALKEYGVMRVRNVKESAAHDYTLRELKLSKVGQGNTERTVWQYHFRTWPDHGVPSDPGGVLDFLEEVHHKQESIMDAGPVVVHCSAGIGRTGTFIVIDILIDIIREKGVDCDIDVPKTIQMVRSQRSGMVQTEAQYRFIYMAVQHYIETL

A word on the IC50: it is the point on the concentration scale where inhibition reaches its midpoint. On to `COc1ccc2cc(-c3n[nH]c4nc(N5CC[C@@H]6[C@H](C5)[C@@]6(CN)c5cc(C)on5)cnc34)ccc2n1` [Example 149, ((1S,6R,7S)-3-(3-(2-methoxyquinolin-6-yl)-1H-pyrazolo[3,4-b]pyrazin-6-yl)-7-(5-methylisoxazol-3-yl)-3-azabicyclo[4.1.0]heptan-7-yl)methanamine], for which the IC50 was below 500 nM in assay [1] (setting [3]) and below 1000 nM in assay [2] (setting [4]).

For `Cn1ccc([C@@]2(CN)[C@@H]3CN(c4cnc5c(-c6ccc7nccnc7c6Cl)n[nH]c5n4)C[C@@H]32)n1` [Example 511, ((1R,5S,6r)-3-(3-(5-chloroquinoxalin-6-yl)-1H-pyrazolo[3,4-b]pyrazin-6-yl)-6-(1-methyl-1H-pyrazol-3-yl)-3-azabicyclo[3.1.0]hexan-6-yl)methanamine], the IC50 in assay [1] (setting [3]) is below 500 nM; in assay [2] (setting [4]), below 1000 nM.

For `Cc1csc(C2(CN)C3CCN(c4cnc5c(-c6ccc(OS(=O)(=O)F)c(Cl)c6Cl)n[nH]c5n4)CC32)n1` (stereo not drawn) [Example 450, 4-(6-(7-(aminomethyl)-7-(4-methylthiazol-2-yl)-3-azabicyclo[4.1.0]heptan-3-yl)-1H-pyrazolo[3,4-b]pyrazin-3-yl)-2,3-dichlorophenyl sulfurofluoridate], the half-inhibitory concentration (IC50) in assay [1] (SHP2wt-IC50, 0.5 nM SHP-2 activated by 500 nM IRS1 peptide) was below 500 nM; in assay [2] (Homo sapiens, KYSE-520, 2 h) it was below 1000 nM.

Take `NC[C@]1(c2ccccc2F)[C@@H]2CCN(c3cnc4c(-c5ccc6ncsc6c5)n[nH]c4n3)C[C@@H]21` [Example 118, ((1S,6R,7R)-3-(3-(benzo[d]thiazol-6-yl)-1H-pyrazolo[3,4-b]pyrazin-6-yl)-7-(2-fluorophenyl)-3-azabicyclo[4.1.0]heptan-7-yl)methanamine]: the IC50 in assay [1] (setting [3]) was below 500 nM; in assay [2] (setting [4]), below 1000 nM.

With `NC[C@]1(c2ccccc2F)[C@@H]2CCN(c3cnc4c(-c5ccc(C(=O)O)c(Cl)c5Cl)n[nH]c4n3)C[C@@H]21` [Example 227, 4-(6-((1S,6R,7R)-7-(aminomethyl)-7-(2-fluorophenyl)-3-azabicyclo[4.1.0]heptan-3-yl)-1H-pyrazolo[3,4-b]pyrazin-3-yl)-2,3-dichlorobenzoic acid], the values for the IC50 in assay [1] (setting [3]) and in assay [2] (setting [4]) were below 500 nM and above 5000 nM, respectively.

In the case of `Cc1csc(C2(CN)[C@@H]3CN(c4cnc5c(-c6ccc7c(cnn7C)c6Cl)n[nH]c5n4)C[C@@H]32)n1` (stereo partly drawn) [Example 480], the IC50 in assay [1] (setting [3]) is below 500 nM; in assay [2] (KYSE-520 cells, 2 h at 37° C., phospho-ERK1/2 (Thr202/Tyr204) TR-FRET), below 1000 nM.

In the case of `Cn1c(=O)n(C)c2cc(-c3n[nH]c4nc(N5CC[C@@H]6[C@H](C5)[C@@]6(CN)c5ccccc5F)cnc34)ccc21` [Example 232, 5-(6-((1S,6R,7R)-7-(aminomethyl)-7-(2-fluorophenyl)-3-azabicyclo[4.1.0]heptan-3-yl)-1H-pyrazolo[3,4-b]pyrazin-3-yl)-1,3-dimethyl-1,3-dihydro-2H-benzo[d]imidazol-2-one], the results for the IC50 in assay [1] (setting [3]) and in assay [2] (setting [4]) were below 500 nM and below 1000 nM, respectively.

As for `COc1cc(-c2n[nH]c3nc(N4CC[C@@H]5[C@H](C4)[C@@]5(CN)c4ccccc4F)cnc23)c2ccnn2c1` [Example 147, ((1S,6R,7R)-7-(2-fluorophenyl)-3-(3-(6-methoxypyrazolo[1,5-a]pyridin-4-yl)-1H-pyrazolo[3,4-b]pyrazin-6-yl)-3-azabicyclo[4.1.0]heptan-7-yl)methanamine], the values for the IC50 in assay [1] (setting [3]) and in assay [2] (setting [4]) were below 500 nM and below 1000 nM, respectively.

With `Cn1ccc([C@@]2(CN)[C@@H]3CN(c4cnc5c(-c6ccc7nn(C)cc7c6Cl)n[nH]c5n4)C[C@@H]32)n1` [Example 474, ((1R,5S,6r)-3-(3-(4-chloro-2-methyl-2H-indazol-5-yl)-1H-pyrazolo[3,4-b]pyrazin-6-yl)-6-(1-methyl-1H-pyrazol-3-yl)-3-azabicyclo[3.1.0]hexan-6-yl)methanamine], the IC50 is below 500 nM in assay [1] (setting [3]) and below 1000 nM in assay [2] (setting [4]).
